Values joined by “and” are separate entries in the source; they are usually repeats but may differ in a detail not shown here. Equal entries are not always repeated.
Tests used:
[1] = Stability in solvent systems by HPLC; format: physicochemical; conditions: room temperature
Description: The stability of PCLB, 5CLB, and 56CLB was evaluated by HPLC. The complexes were tested in three solvent systems, 10 mM PBS (~7.4 pH), 0.9% NaCl and d.i.H2O/DMSO (50:50). This process was followed for 1 h at room temperature for each complex in each solvent system (Table 3 and Figure S32). However, it is noteworthy that when these complexes are left in solution for more extended periods, reduction to the corresponding platinum(II) species appears inevitable (Figure S33). This is likely influenced by the nature of the coordinated CLB ligand, which is highly susceptible to rapid hydrolysis due to its functional group.
The stability of PCLB, 5CLB, and 56CLB was monitored using an Agilent Technologies 1260 Infinity instrument equipped with a Phenomenex Onyx^TM Monolithic C18-reverse phase column (100 × 4.6 mm, 5 µm pore size). The mobile phase consisted of solvents, A (0.06% TFA in d.i.H2O) and B (0.06% TFA in CH3CN/d.i.H2O (90:10)). An injection volume of 5 µL was utilized and eluted with a 0–100% linear gradient over 15 min with a flow rate of 1 mL/min, at the set wavelengths of 214 and 254 nm. Each complex was dissolved separately in three solvent systems including, 10 mM phosphate-buffered saline (PBS) at ~7.4 pH, 0.9% sodium chloride (NaCl) or standard saline solution and d.i.H2O/DMSO (50:50). Each HPLC run per solvent system was followed for 1 h at room temperature.

[2] = system: ADDP ovarian (cisplatin-resistant A2780 clone); experiment: MTT growth inhibition assay, 72 h; format: cell-based, human; conditions: MTT, 72 h
MCF-7 breast = experiment: MTT growth inhibition assay, 72 h; format: cell-based, human; conditions: for GI50: MTT, 72 h
[3] = Reduction experiments with ascorbic acid by 1H-NMR and 1D-195Pt-NMR; format: physicochemical; conditions: 10 mM AsA, 10 mM PBS (~7.4 pH), D2O, 37 °C, 1H-NMR
Description: Intracellularly, a platinum(IV) complex is reduced into its platinum(II) congener and axial ligands in the presence of biological reducing agents such as AsA or glutathione. This report followed the reduction in PCLB, 5CLB, and 56CLB using ^1H-NMR and 1D-^195Pt-NMR spectroscopy. The method used for the reduction experiments was adapted from the literature with minor modifications. A total of 10 mM PBS (~7.4 pH) was selected as media to mimic physiological conditions, while 10 mM AsA was used as the biological reducing agent. Prior to the reduction experiments, a control was considered where each metal complex was dissolved with PBS in D2O. 1D-^195Pt-NMR was employed within the regions of −2800 and 400 ppm (30 min per region) at 37 °C. Typically, our platinum(II) complexes resonate within the −2800 ppm region (Figures S1–S3), while their platinum(IV) derivatives resonate around the 400 ppm region (Figures S4–S6). A control was required to ensure that the PBS would not interfere in the reduction process of the complexes. From the preliminary 1D-^195Pt-NMR spectra obtained (Figure 11), the state of all complexes was unchanged, and no sign of reduction was observed.
The reduction property of PCLB was monitored for 1 h by ^1H-NMR spectroscopy at 37 °C (Figure 12). Utilizing the resonances of the phenanthroline protons (H2 and H9; H4 and H7; H5 and H6; H3 and H8) from both platinum(II) and (IV) species as a qualitative measure of […], and considering that the resonances of these phenanthroline protons from both platinum(II) and (IV) species were almost equivalent, it is estimated that 40–50% reduction occurs within 10 min. […] A notable observation from the ^1H-NMR experiments is the movement of resonances, particularly the upfield shift of the phenanthroline protons and the downfield shift of the aromatic protons of CLB (Figure 12).
The reduction behavior of PCLB, 5CLB, and 56CLB was monitored using ^1H-NMR and 1D-^195Pt-NMR spectroscopy. A sequence of ^1H-NMR experiments was carried out for 1 h at 37 °C, followed by 1D-^195Pt-NMR within the regions of −2800 and 400 ppm. An amount of 10 mM PBS (~7.4 pH) was transferred to a vial and reduced to dryness through rotary evaporation. AsA (~1 mg) was combined with the metal complex (~5 mg) and transferred to the vial containing the dried PBS. A total of 600 µL of D2O was then added to the vial to dissolve the complex, AsA and the PBS together. Each reaction was followed at 37 °C until the complete reduction in the prodrugs.

panel of cell lines = experiment: MTT growth inhibition assay, 72 h, over the cell line panel; format: cell-based, human; conditions: average over all cell lines tested; read-out: Average GI50 Values
A431 skin = experiment: MTT growth inhibition assay, 72 h; format: cell-based, human
Du145 prostate = experiment: MTT growth inhibition assay, 72 h; format: cell-based, human; conditions: for GI50: MTT, 72 h
SJ-G2 glioblastoma = experiment: MTT growth inhibition assay, 72 h; format: cell-based, human
U87 glioblastoma = experiment: MTT growth inhibition assay, 72 h; format: cell-based, human
H460 lung = experiment: MTT growth inhibition assay, 72 h; format: cell-based, human

SMILES	HPLC Peak Areas at 254 nm ([1]; 0.9% NaCl, 30 min) [%]	HPLC Peak Areas at 254 nm ([1]; 0.9% NaCl, 1 h) [%]	HPLC Peak Areas at 254 nm ([1]; PBS (~7.4 pH), 30 min) [%]	HPLC Peak Areas at 254 nm ([1]; PBS (~7.4 pH), 1 h) [%]	HPLC Peak Areas at 254 nm ([1]; d.i.H2O/DMSO (50:50), 30 min) [%]	HPLC Peak Areas at 254 nm ([1]; d.i.H2O/DMSO (50:50), 1 h) [%]	GI50 [2] [nM]	fold by which the cisplatin prodrug incorporating two CLB ligands (Ma et al.) is less potent (MCF-7 breast; MCF-7 cell line) [fold]	GI50 (MCF-7 breast) [nM]	time to reach 50% reduction [3]	GI50 (panel of cell lines)	GI50 (A431 skin) [nM]	GI50 (Du145 prostate)	GI50 (SJ-G2 glioblastoma) [nM]	GI50 (U87 glioblastoma) [nM]	GI50 (H460 lung) [nM]	also measured
Cc1cc2cccnc2c2ncccc12.N[C@H]1CCCC[C@@H]1N.O=C([O-])CCCc1ccc(N(CCCl)CCCl)cc1.O=[N+]([O-])[O-].O=[N+]([O-])[O-].[OH-].[Pt+4] [5CLB, [Pt^IV(5-methyl-1,10-phenanthroline)(S,S-DACH)(CLB)(OH)](NO3)2]	73.9	72.4	68.8	67.3	76.5	75.8	26 ± 0.0064	12	180 ± 0.017	approximately 5 min	94 ± 0.01 nM	90 ± 0.015	14 ± 0.004 nM	180 ± 0.02	250 ± 0.015	39 ± 0.013	
Cc1c(C)c2cccnc2c2ncccc12.N[C@H]1CCCC[C@@H]1N.O=C([O-])CCCc1ccc(N(CCCl)CCCl)cc1.O=[N+]([O-])[O-].O=[N+]([O-])[O-].[OH-].[Pt+4] [56CLB, [Pt^IV(5,6-dimethyl-1,10-phenanthroline)(S,S-DACH)(CLB)(OH)](NO3)2]	84.6	82.5	78.2	75.2	85.0	84.3	10 ± 0.0028	35	63 ± 0.015	approximately 5 min	40 nM and 44 nM	34 ± 0.0037	3 nM and 2.7 nM	130 ± 0.03	93 ± 0.0067	13 ± 0.0056	fold more potent than oxaliplatin-CLB prodrug of Qin et al. (MCF-7 breast): ~200 fold; fold more potent than cisplatin-CLB prodrug of Qin et al. (MCF-7 breast; MCF-7 cell line): about 63 fold; fold increase in potency compared to CLB (Du145 prostate; Du145 prostate cell line): 10,000 fold; fold more potent than cisplatin (Du145 prostate; Du145 prostate cell line): at least 440 fold
O=C(CCCc1ccc(N(CCCl)CCCl)cc1)[O][Pt-2]12([OH])([NH2+][C@H]3CCCC[C@@H]3[NH2+]1)[n+]1cccc3ccc4ccc[n+]2c4c31.O=[N+]([O-])[O-].O=[N+]([O-])[O-] [PCLB, [Pt^IV(1,10-phenanthroline)(S,S-DACH)(CLB)(OH)](NO3)2]	89.4	87.5	85.0	83.1	93.2	92.4	290 ± 0.037	3	680 ± 0.043		423 ± 0.07 nM	510 ± 0.1	210 ± 0.12 nM	320 ± 0.04	1200 ± 0.28	460 ± 0.063	state of the complex at 1 h [3]: almost reduced to its platinum(II) congener; time at which the complex started reducing [3]: 5 min

From PMC9499463, “Potent Chlorambucil-Platinum(IV) Prodrugs” (International Journal of Molecular Sciences, 2022)
